According to ChEMBL document CHEMBL1201862, “PubChem BioAssay data set” (2004):
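Dose response: 5 concentrations. Exposure: 48 h. Format: 96-well plates. Endpoint: linear interpolation; highest concentration if not reached. Abbreviation: GI50, concentration required for 50% inhibition of growth.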 Active and inactive are the calls of the source. No stated cut-off is given here; in the data, active = GI50 up to about 1.1 µM and inactive = higher.

What was measured:
Experiment in all cases: inhibition of tumour cell growth, NCI panel, 48 h
Malme-3M = tested on: Malme-3M
COLO 205 = tested on: COLO 205
SF-295 = tested on: SF-295
HL-60 = tested on: HL-60
UACC-62 = tested on: UACC-62
MCF7 = tested on: MCF7
OVCAR-3 = tested on: OVCAR-3
NCI-H460 = tested on: NCI-H460
M14 = tested on: M14
HCC 2998 = tested on: HCC 2998
CCRF-CEM = tested on: CCRF-CEM
Hs-578T = tested on: Hs-578T
SW-620 = tested on: SW-620
SK-MEL-2 = tested on: SK-MEL-2
MDA-MB-231 = tested on: MDA-MB-231
HCT-116 = tested on: HCT-116
A498 = tested on: A498
KM12 = tested on: KM12
MOLT-4 = tested on: MOLT-4
K562 = tested on: K562

Measured: GI50

CCC(=O)C(c1ccccc1)c1ccccn1 (stereo not drawn)
inactive: Malme-3M > 100 µM | COLO 205 > 100 µM | SF-295 > 100 µM | HL-60 > 100 µM | UACC-62 > 100 µM | MCF7 > 100 µM | OVCAR-3 13.8 µM | NCI-H460 > 100 µM | M14 > 100 µM | HCC 2998 > 100 µM | CCRF-CEM > 100 µM | Hs-578T > 100 µM | SW-620 > 100 µM | SK-MEL-2 > 100 µM | MDA-MB-231 > 100 µM | HCT-116 > 100 µM | A498 > 100 µM | KM12 > 100 µM

CC1(C)Cc2c(c3ccccc3c3nc4c(nc23)c2c(c3ccccc34)OC(C)(C)C2)O1
inactive: Malme-3M > 100 µM | COLO 205 > 100 µM | SF-295 > 100 µM | HL-60 > 100 µM | UACC-62 > 100 µM | MCF7 > 100 µM | OVCAR-3 > 100 µM | NCI-H460 > 100 µM | M14 > 100 µM | HCC 2998 > 100 µM | CCRF-CEM > 100 µM | Hs-578T 39.4 µM | MOLT-4 > 100 µM | SW-620 > 100 µM | SK-MEL-2 > 100 µM | MDA-MB-231 > 100 µM | HCT-116 > 100 µM | A498 > 100 µM | KM12 > 100 µM

Cc1cc(N(CCC#N)CCC#N)ccc1/C=N/NC(=O)c1cc(Cl)ccc1O
inactive: Malme-3M > 100 µM | COLO 205 > 100 µM | SF-295 54.7 µM | HL-60 69.2 µM | UACC-62 > 100 µM | MCF7 > 100 µM | OVCAR-3 > 100 µM | NCI-H460 > 100 µM | M14 > 100 µM | HCC 2998 > 100 µM | CCRF-CEM > 100 µM | Hs-578T 59.7 µM | MOLT-4 36.9 µM | SK-MEL-2 > 100 µM | MDA-MB-231 > 100 µM | HCT-116 > 100 µM | A498 > 100 µM

Nc1nc(-c2ccccc2)nc2c1[n+]([O-])c1ccccc1[n+]2[O-]
inactive: Malme-3M > 100 µM | COLO 205 > 100 µM | SF-295 > 100 µM | HL-60 > 100 µM | UACC-62 > 100 µM | MCF7 > 100 µM | OVCAR-3 > 100 µM | NCI-H460 > 100 µM | K562 > 100 µM | M14 > 100 µM | HCC 2998 > 100 µM | CCRF-CEM > 100 µM | Hs-578T > 100 µM | SW-620 > 100 µM | SK-MEL-2 > 100 µM | MDA-MB-231 > 100 µM | HCT-116 > 100 µM | A498 > 100 µM | KM12 > 100 µM
